Results as given in patent US9074014B2 (Ipsen Pharma S.A.S., priority 2008, dated 2015).

Key:
[1] = Human plasma half-life assay; assay type: in vitro ADME; conditions: human plasma, 37° C., LC-MS; read-out: Human Plasma T½ (converted)
[2] = Rat plasma half-life assay; assay type: in vitro ADME; conditions: rat plasma, 37° C., LC-MS; read-out: Rat Plasma T½ (converted)

| SMILES | half-life at 0.1 mg/ml [1] [h] | half-life at 0.1 mg/ml [2] [h] |
| --- | --- | --- |
| CCCC[C@H](NC(=O)C(C)(C)NC(=O)[C@@H](NC(=O)[C@H](CO)NC(=O)[C@H](Cc1ccc(O)cc1)NC(=O)[C@H](CC(=O)O)NC(=O)[C@H](CO)NC(=O)[C@@H](NC(=O)[C@H](Cc1ccccc1)NC(=O)[C@@H](NC(=O)CNC(=O)[C@@H]1Cc2ccccc2CN1C(=O)[C@H](C)NC(=O)[C@@H](N)Cc1ccc(O)cc1)[C@@H](C)O)[C@@H](C)CC)[C@@H](C)CC)C(=O)N[C@@H](CC(=O)O)C(=O)N[C@@H](CCCCN)C(=O)N[C@H](C(=O)N[C@@H](Cc1c[nH]cn1)C(=O)N[C@@H](CCC(N)=O)C(=O)N[C@@H](CCC(N)=O)C(=O)N[C@@H](CC(=O)O)C(=O)N[C@@H](Cc1ccccc1)C(=O)N[C@H](C(=O)N[C@@H](CC(N)=O)C(=O)N[C@@H](Cc1c[nH]c2ccccc12)C(=O)N[C@@H](CC(C)C)C(=O)N[C@@H](CC(C)C)C(=O)N[C@@H](C)C(=O)N[C@@H](CCC(N)=O)C(=O)N[C@@H](CCCCN)C(=O)NCC(=O)N[C@@H](CCCCN)C(=O)N[C@@H](CCCCN)C(=O)N[C@@H](CC(N)=O)C(=O)N[C@@H](CC(=O)O)C(=O)N[C@@H](Cc1c[nH]c2ccccc12)C(=O)N[C@@H](CCCCN)C(=O)N[C@@H](Cc1c[nH]cn1)C(=O)N[C@@H](CC(N)=O)C(=O)N[C@H](C(=O)N[C@H](C(=O)N[C@@H](CCC(N)=O)C(=O)O)[C@@H](C)O)[C@@H](C)CC)C(C)C)[C@@H](C)CC [Example 69, (Tic^3, Aib^13, Nle^14)hGIP(1-42)-OH] | 36.9 | 1.8 |
| CCCC[C@H](NC(=O)C(C)(C)NC(=O)[C@@H](NC(=O)[C@H](CO)NC(=O)[C@H](Cc1ccc(O)cc1)NC(=O)[C@H](CC(=O)O)NC(=O)[C@H](CO)NC(=O)[C@@H](NC(=O)[C@H](Cc1ccccc1)NC(=O)[C@@H](NC(=O)CNC(=O)[C@@H]1C(O)CCN1C(=O)[C@H](C)NC(=O)[C@@H](N)Cc1ccc(O)cc1)[C@@H](C)O)[C@@H](C)CC)[C@@H](C)CC)C(=O)N[C@@H](CC(=O)O)C(=O)N[C@@H](CCCCN)C(=O)N[C@H](C(=O)N[C@@H](Cc1c[nH]cn1)C(=O)N[C@@H](CCC(N)=O)C(=O)N[C@@H](CCC(N)=O)C(=O)N[C@@H](CC(=O)O)C(=O)N[C@@H](Cc1ccccc1)C(=O)N[C@H](C(=O)N[C@@H](CC(N)=O)C(=O)N[C@@H](Cc1c[nH]c2ccccc12)C(=O)N[C@@H](CC(C)C)C(=O)N[C@@H](CC(C)C)C(=O)N[C@@H](C)C(=O)N[C@@H](CCC(N)=O)C(=O)N[C@@H](CCCCN)C(=O)NCC(=O)N[C@@H](CCCCN)C(=O)N[C@@H](CCCCN)C(=O)N[C@@H](CC(N)=O)C(=O)N[C@@H](CC(=O)O)C(=O)N[C@@H](Cc1c[nH]c2ccccc12)C(=O)N[C@@H](CCCCN)C(=O)N[C@@H](Cc1c[nH]cn1)C(=O)N[C@@H](CC(N)=O)C(=O)N[C@H](C(=O)N[C@H](C(=O)N[C@@H](CCC(N)=O)C(=O)O)[C@@H](C)O)[C@@H](C)CC)C(C)C)[C@@H](C)CC (some centres unmarked) [Example 70, (3Hyp^3, Aib^13, Nle^14)hGIP(1-42)-OH] | > 33 | 1.5 |
| CC[C@H](C)[C@H](NC(=O)[C@H](CO)NC(=O)[C@H](Cc1ccc(O)cc1)NC(=O)[C@H](CC(=O)O)NC(=O)[C@H](CO)NC(=O)[C@@H](NC(=O)[C@H](Cc1ccccc1)NC(=O)[C@@H](NC(=O)CNC(=O)[C@@H]1Cc2ccccc2CN1C(=O)[C@H](C)NC(=O)[C@@H](N)Cc1ccc(O)cc1)[C@@H](C)O)[C@@H](C)CC)C(=O)N[C@@H](C)C(=O)NC1(C(=O)N[C@@H](CC(=O)O)C(=O)N[C@@H](CCCCN)C(=O)N[C@H](C(=O)N[C@@H](Cc2c[nH]cn2)C(=O)N[C@@H](CCC(N)=O)C(=O)N[C@@H](CCC(N)=O)C(=O)N[C@@H](CC(=O)O)C(=O)N[C@@H](Cc2ccccc2)C(=O)N[C@H](C(=O)N[C@@H](CC(N)=O)C(=O)N[C@@H](Cc2c[nH]c3ccccc23)C(=O)N[C@@H](CC(C)C)C(=O)N[C@@H](CC(C)C)C(=O)N[C@@H](C)C(=O)N[C@@H](CCC(N)=O)C(=O)N[C@@H](CCCCN)C(=O)NCC(=O)N[C@@H](CCCCN)C(=O)N[C@@H](CCCCN)C(=O)N[C@@H](CC(N)=O)C(=O)N[C@@H](CC(=O)O)C(=O)N[C@@H](Cc2c[nH]c3ccccc23)C(=O)N[C@@H](CCCCN)C(=O)N[C@@H](Cc2c[nH]cn2)C(=O)N[C@@H](CC(N)=O)C(=O)N[C@H](C(=O)N[C@H](C(=O)N[C@@H](CCC(N)=O)C(=O)O)[C@@H](C)O)[C@@H](C)CC)C(C)C)[C@@H](C)CC)CCCCC1 [Example 71, (Tic^3, A6c^14)hGIP(1-42)-OH] | > 31 | 4.8 |
| CC[C@H](C)[C@H](NC(=O)[C@H](CO)NC(=O)[C@H](Cc1ccc(O)cc1)NC(=O)[C@H](CC(=O)O)NC(=O)[C@H](CO)NC(=O)[C@@H](NC(=O)[C@H](Cc1ccccc1)NC(=O)[C@@H](NC(=O)CNC(=O)[C@@H]1CCCCN1C(=O)[C@H](C)NC(=O)[C@@H](N)Cc1ccc(O)cc1)[C@@H](C)O)[C@@H](C)CC)C(=O)N[C@@H](C)C(=O)NC1(C(=O)N[C@@H](CC(=O)O)C(=O)N[C@@H](CCCCN)C(=O)N[C@H](C(=O)N[C@@H](Cc2c[nH]cn2)C(=O)N[C@@H](CCC(N)=O)C(=O)N[C@@H](CCC(N)=O)C(=O)N[C@@H](CC(=O)O)C(=O)N[C@@H](Cc2ccccc2)C(=O)N[C@H](C(=O)N[C@@H](CC(N)=O)C(=O)N[C@@H](Cc2c[nH]c3ccccc23)C(=O)N[C@@H](CC(C)C)C(=O)N[C@@H](CC(C)C)C(=O)N[C@@H](C)C(=O)N[C@@H](CCC(N)=O)C(=O)N[C@@H](CCCCN)C(=O)NCC(=O)N[C@@H](CCCCN)C(=O)N[C@@H](CCCCN)C(=O)N[C@@H](CC(N)=O)C(=O)N[C@@H](CC(=O)O)C(=O)N[C@@H](Cc2c[nH]c3ccccc23)C(=O)N[C@@H](CCCCN)C(=O)N[C@@H](Cc2c[nH]cn2)C(=O)N[C@@H](CC(N)=O)C(=O)N[C@H](C(=O)N[C@H](C(=O)N[C@@H](CCC(N)=O)C(=O)O)[C@@H](C)O)[C@@H](C)CC)C(C)C)[C@@H](C)CC)CCCCC1 [Example 72, (hPro^3, A6c^14)hGIP(1-42)-OH] | 10.7 | 0.45 |
| CC[C@H](C)[C@H](NC(=O)[C@H](CCCCN)NC(=O)[C@H](CC(=O)O)NC(=O)[C@H](CCSC)NC(=O)[C@H](C)NC(=O)[C@@H](NC(=O)C1(NC(=O)[C@H](Cc2ccc(O)cc2)NC(=O)[C@H](CC(=O)O)NC(=O)[C@H](CO)NC(=O)[C@@H](NC(=O)[C@H](Cc2ccccc2)NC(=O)[C@@H](NC(=O)CNC(=O)[C@@H]2CCCCN2C(=O)[C@H](C)NC(=O)[C@@H](N)Cc2ccc(O)cc2)[C@@H](C)O)[C@@H](C)CC)CCCC1)[C@@H](C)CC)C(=O)N[C@@H](Cc1c[nH]cn1)C(=O)N[C@@H](CCC(N)=O)C(=O)N[C@@H](CCC(N)=O)C(=O)N[C@@H](CC(=O)O)C(=O)N[C@@H](Cc1ccccc1)C(=O)N[C@H](C(=O)N[C@@H](CC(N)=O)C(=O)N[C@@H](Cc1c[nH]c2ccccc12)C(=O)N[C@@H](CC(C)C)C(=O)N[C@@H](CC(C)C)C(=O)N[C@@H](C)C(=O)N[C@@H](CCC(N)=O)C(=O)N[C@@H](CCCCN)C(=O)NCC(=O)N[C@@H](CCCCN)C(=O)N[C@@H](CCCCN)C(=O)N[C@@H](CC(N)=O)C(=O)N[C@@H](CC(=O)O)C(=O)N[C@@H](Cc1c[nH]c2ccccc12)C(=O)N[C@@H](CCCCN)C(=O)N[C@@H](Cc1c[nH]cn1)C(=O)N[C@@H](CC(N)=O)C(=O)N[C@H](C(=O)N[C@H](C(=O)N[C@@H](CCC(N)=O)C(=O)O)[C@@H](C)O)[C@@H](C)CC)C(C)C [Example 74, (hPro^3, A5c^11)hGIP(1-42)-OH] | 16.3 | 1.3 |
| CC[C@H](C)[C@H](NC(=O)[C@H](CO)NC(=O)[C@H](Cc1ccc(O)cc1)NC(=O)[C@H](CC(=O)O)NC(=O)[C@H](CO)NC(=O)C1(NC(=O)[C@H](Cc2ccccc2)NC(=O)[C@@H](NC(=O)CNC(=O)[C@@H]2CCCN2C(=O)[C@H](C)NC(=O)[C@@H](N)Cc2ccc(O)cc2)[C@@H](C)O)CCCC1)C(=O)N[C@@H](C)C(=O)NC1(C(=O)N[C@@H](CC(=O)O)C(=O)N[C@@H](CCCCN)C(=O)N[C@H](C(=O)N[C@@H](Cc2c[nH]cn2)C(=O)N[C@@H](CCC(N)=O)C(=O)N[C@@H](CCC(N)=O)C(=O)N[C@@H](CC(=O)O)C(=O)N[C@@H](Cc2ccccc2)C(=O)N[C@H](C(=O)N[C@@H](CC(N)=O)C(=O)N[C@@H](Cc2c[nH]c3ccccc23)C(=O)N[C@@H](CC(C)C)C(=O)N[C@@H](CC(C)C)C(=O)N[C@@H](C)C(=O)N[C@@H](CCC(N)=O)C(=O)N[C@@H](CCCCN)C(=O)NCC(=O)N[C@@H](CCCCN)C(=O)N[C@@H](CCCCN)C(=O)N[C@@H](CC(N)=O)C(=O)N[C@@H](CC(=O)O)C(=O)N[C@@H](Cc2c[nH]c3ccccc23)C(=O)N[C@@H](CCCCN)C(=O)N[C@@H](Cc2c[nH]cn2)C(=O)N[C@@H](CC(N)=O)C(=O)N[C@H](C(=O)N[C@H](C(=O)N[C@@H](CCC(N)=O)C(=O)O)[C@@H](C)O)[C@@H](C)CC)C(C)C)[C@@H](C)CC)CCCC1 [Example 76, (Pro^3, A5c^7, 14)hGIP(1-42)-OH] | 55.9 | 1 |
| CC[C@H](C)[C@H](NC(=O)[C@H](CCCCN)NC(=O)[C@H](CC(=O)O)NC(=O)[C@H](CCSC)NC(=O)[C@H](C)NC(=O)[C@@H](NC(=O)C1(NC(=O)[C@H](Cc2ccc(O)cc2)NC(=O)[C@H](CC(=O)O)NC(=O)[C@H](CO)NC(=O)[C@@H](NC(=O)[C@H](Cc2ccccc2)NC(=O)[C@@H](NC(=O)CNC(=O)[C@@H]2CCCN2C(=O)[C@H](C)NC(=O)[C@@H](N)Cc2ccc(O)cc2)[C@@H](C)O)[C@@H](C)CC)CCCC1)[C@@H](C)CC)C(=O)N[C@@H](Cc1c[nH]cn1)C(=O)N[C@@H](CCC(N)=O)C(=O)N[C@@H](CCC(N)=O)C(=O)N[C@@H](CC(=O)O)C(=O)N[C@@H](Cc1ccccc1)C(=O)N[C@H](C(=O)N[C@@H](CC(N)=O)C(=O)N[C@@H](Cc1c[nH]c2ccccc12)C(=O)N[C@@H](CC(C)C)C(=O)N[C@@H](CC(C)C)C(=O)N[C@@H](C)C(=O)N[C@@H](CCC(N)=O)C(=O)N[C@@H](CCCCN)C(=O)NCC(=O)N[C@@H](CCCCN)C(=O)N[C@@H](CCCCN)C(=O)N[C@@H](CC(N)=O)C(=O)N[C@@H](CC(=O)O)C(=O)N[C@@H](Cc1c[nH]c2ccccc12)C(=O)N[C@@H](CCCCN)C(=O)N[C@@H](Cc1c[nH]cn1)C(=O)N[C@@H](CC(N)=O)C(=O)N[C@H](C(=O)N[C@H](C(=O)N[C@@H](CCC(N)=O)C(=O)O)[C@@H](C)O)[C@@H](C)CC)C(C)C [Example 77, (Pro^3, A5c^11)hGIP(1-42)-OH] | 43.3 | 1.5 |
